Where a SMILES comes first, the peptide text is derived from it.
Species on record: Homo sapiens
Assay: Binding affinity to RBC membrane receptor in human RBCs assessed as specific binding activity measured as ratio of specifically bound peptide/added peptide by gamma counter

SMILES	Activity
CC(C)C[C@H](NC(=O)[C@@H](NC(=O)[C@@H](N)CC(=O)O)C(C)C)C(=O)N[C@@H](CO)C(=O)N[C@@H](CCC(=O)O)C(=O)N[C@@H](CO)C(=O)N[C@@H](CC(N)=O)C(=O)N[C@@H](CC(N)=O)C(=O)N[C@@H](CCC(=O)O)C(=O)N[C@@H](CC(N)=O)C(=O)N[C@@H](CCCCN)C(=O)N[C@@H](CCC(=O)O)C(=O)N[C@H](C(=O)N[C@@H](CO)C(=O)N[C@@H](CC(=O)O)C(=O)N[C@@H](CC(=O)O)C(=O)N[C@@H](C)C(=O)N[C@H](C(=O)N[C@@H](Cc1cnc[nH]1)C(=O)N[C@@H](Cc1ccc(O)cc1)C(=O)O)[C@@H](C)O)[C@@H](C)O	> 2%
CC(C)C[C@H](NC(=O)[C@H](CC(C)C)NC(=O)[C@H](CO)NC(=O)[C@@H]1CCCN1C(=O)[C@@H](NC(=O)[C@H](CC(C)C)NC(=O)[C@H](Cc1ccc(O)cc1)NC(=O)[C@H](CO)NC(=O)[C@H](CCCCN)NC(=O)[C@H](CCCCN)NC(=O)[C@H](CCCCN)NC(=O)CNC(=O)[C@@H](NC(=O)[C@H](CO)NC(=O)[C@H](CS)NC(=O)[C@H](CCCCN)NC(=O)[C@H](Cc1cnc[nH]1)NC(=O)[C@H](Cc1ccc(O)cc1)NC(=O)[C@H](CC(=O)O)NC(=O)[C@@H](N)CO)C(C)C)[C@@H](C)O)C(=O)O	< 2%
CC(C)C[C@H](NC(=O)[C@H](CC(N)=O)NC(=O)[C@H](CC(C)C)NC(=O)[C@@H]1CCCN1C(=O)[C@H](CC(N)=O)NC(=O)[C@H](CCCCN)NC(=O)[C@H](Cc1ccc(O)cc1)NC(=O)[C@@H](N)CS)C(=O)N[C@@H](CCCCN)C(=O)N[C@H](C(=O)N[C@@H](CC(C)C)C(=O)N[C@@H](CCC(=O)O)C(=O)N[C@H](C(=O)N[C@@H](CC(C)C)C(=O)N[C@@H](CC(C)C)C(=O)N[C@@H](CCCCN)C(=O)N[C@@H](CCCCN)C(=O)N[C@@H](CC(N)=O)C(=O)N[C@@H](Cc1ccc(O)cc1)C(=O)N[C@@H](Cc1ccc(O)cc1)C(=O)O)C(C)C)C(C)C	> 2%
CC(C)[C@H](NC(=O)[C@H](Cc1ccc(O)cc1)NC(=O)[C@@H](N)CCC(=O)O)C(=O)N[C@@H](CC(N)=O)C(=O)N[C@@H](C)C(=O)N[C@@H](CC(N)=O)C(=O)N[C@@H](CO)C(=O)N[C@@H](CO)C(=O)N[C@@H](CCC(=O)O)C(=O)N[C@@H](CO)C(=O)N[C@@H](CO)C(=O)N[C@@H](CCC(=O)O)C(=O)N[C@@H](CCC(=O)O)C(=O)N[C@@H](CC(=O)O)C(=O)N[C@H](C(=O)N[C@H](C(=O)N1CCC[C@H]1C(=O)N[C@@H](CC(N)=O)C(=O)N[C@@H](CCC(=O)O)C(=O)N[C@H](C(=O)O)[C@@H](C)O)[C@H](C)O)[C@@H](C)O	> 2%
CC[C@H](C)[C@H](N)C(=O)N[C@@H](CCCCN)C(=O)N[C@@H](Cc1ccc(O)cc1)C(=O)N[C@H](C(=O)N[C@@H](CCC(=O)O)C(=O)N[C@@H](Cc1ccccc1)C(=O)N[C@@H](Cc1ccccc1)C(=O)N[C@@H](CCC(=O)O)C(=O)N[C@@H](CO)C(=O)N[C@@H](CC(N)=O)C(=O)N[C@@H](Cc1ccc(O)cc1)C(=O)N[C@@H](CC(N)=O)C(=O)N[C@@H](CCCNC(=N)N)C(=O)N[C@@H](CC(C)C)C(=O)N[C@@H](CCCCN)C(=O)N[C@@H](CCCNC(=N)N)C(=O)N[C@@H](CO)C(=O)N[C@@H](Cc1ccccc1)C(=O)N[C@@H](CCC(N)=O)C(=O)N[C@@H](CCCCN)C(=O)O)[C@@H](C)O	< 2%
CC[C@H](C)[C@H](NC(=O)[C@@H](N)CO)C(=O)N[C@@H](CCC(=O)O)C(=O)N[C@@H](C)C(=O)N[C@@H](CO)C(=O)N[C@@H](CCC(=O)O)C(=O)N[C@@H](CO)C(=O)N[C@@H](CO)C(=O)N[C@@H](CCC(N)=O)C(=O)N[C@@H](CCCCN)C(=O)N[C@@H](CC(=O)O)C(=O)N[C@@H](CCC(=O)O)C(=O)N[C@H](C(=O)N[C@@H](CCCCN)C(=O)N[C@@H](CCC(=O)O)C(=O)N[C@H](C(=O)N[C@@H](CCC(=O)O)C(=O)N[C@@H](CC(=O)O)C(=O)N[C@@H](CCCCN)C(=O)N[C@@H](CCC(=O)O)C(=O)N[C@@H](Cc1ccc(O)cc1)C(=O)O)[C@H](C)O)[C@@H](C)O	> 2%
CC[C@H](C)[C@H](NC(=O)[C@H](C)NC(=O)[C@H](CCC(=O)O)NC(=O)[C@H](C)NC(=O)[C@H](CC(=O)O)NC(=O)[C@@H](NC(=O)[C@H](CO)NC(=O)[C@H](CC(=O)O)NC(=O)[C@H](CCC(=O)O)NC(=O)[C@H](CC(=O)O)NC(=O)[C@H](CC(N)=O)NC(=O)[C@H](CCC(N)=O)NC(=O)[C@H](CCC(N)=O)NC(=O)[C@H](CC(C)C)NC(=O)[C@H](CCC(=O)O)NC(=O)[C@@H](N)CCC(=O)O)[C@@H](C)O)C(=O)N[C@@H](CC(=O)O)C(=O)N[C@@H](CCCCN)C(=O)N[C@@H](CCC(=O)O)C(=O)N[C@@H](CCC(=O)O)C(=O)N[C@H](C(=O)N[C@@H](CCC(=O)O)C(=O)N[C@@H](Cc1ccc(O)cc1)C(=O)O)C(C)C	> 2%
CC[C@H](C)[C@H](NC(=O)[C@H](CC(=O)O)NC(=O)[C@H](CC(N)=O)NC(=O)[C@H](CC(N)=O)NC(=O)[C@@H](N)CCC(N)=O)C(=O)N[C@@H](CC(=O)O)C(=O)N[C@@H](Cc1cnc[nH]1)C(=O)N[C@@H](CO)C(=O)N[C@@H](CCC(=O)O)C(=O)N[C@@H](CC(=O)O)C(=O)N[C@@H](CCCCN)C(=O)N[C@@H](CCCCN)C(=O)N[C@@H](CC(C)C)C(=O)N[C@H](C(=O)N[C@@H](CO)C(=O)N[C@@H](CCCNC(=N)N)C(=O)N[C@H](C(=O)N[C@@H](CC(C)C)C(=O)N[C@@H](Cc1ccc(O)cc1)C(=O)N[C@@H](Cc1ccc(O)cc1)C(=O)O)C(C)C)[C@@H](C)CC	< 2%
CC[C@H](C)[C@H](NC(=O)[C@H](CC(C)C)NC(=O)[C@@H](N)C(C)C)C(=O)N[C@@H](C)C(=O)N[C@@H](CCC(=O)O)C(=O)NCC(=O)N[C@@H](Cc1ccc(O)cc1)C(=O)N[C@@H](CCCCN)C(=O)N[C@@H](CCCNC(=N)N)C(=O)N[C@H](C(=O)N[C@@H](CC(N)=O)C(=O)N[C@@H](CCC(=O)O)C(=O)N[C@@H](CCCCN)C(=O)N[C@@H](CCC(=O)O)C(=O)N[C@@H](CC(=O)O)C(=O)N[C@H](C(=O)N[C@@H](CC(=O)O)C(=O)N[C@@H](CCCNC(=N)N)C(=O)N[C@@H](CCCNC(=N)N)C(=O)O)[C@@H](C)CC)[C@@H](C)CC	> 2%
CC[C@H](C)[C@H](NC(=O)[C@H](CCC(N)=O)NC(=O)CNC(=O)[C@H](C)NC(=O)[C@@H](N)CC(C)C)C(=O)N[C@@H](CC(N)=O)C(=O)NCC(=O)N[C@@H](CC(C)C)C(=O)N[C@@H](CC(N)=O)C(=O)N[C@@H](CC(=O)O)C(=O)N[C@@H](CC(C)C)C(=O)N[C@@H](Cc1ccc(O)cc1)C(=O)NCC(=O)N[C@@H](CCCNC(=N)N)C(=O)N[C@@H](CC(N)=O)C(=O)N[C@@H](CO)C(=O)N[C@@H](CCCCN)C(=O)N[C@@H](CCCCN)C(=O)N[C@H](C(=O)N[C@@H](Cc1ccc(O)cc1)C(=O)O)[C@@H](C)O	< 2%
CC[C@H](C)[C@H](NC(=O)[C@H](CCCNC(=N)N)NC(=O)[C@H](CC(C)C)NC(=O)[C@H](CC(=O)O)NC(=O)[C@H](CCC(=O)O)NC(=O)[C@@H](NC(=O)[C@@H](NC(=O)[C@H](CO)NC(=O)CNC(=O)[C@H](CCCCN)NC(=O)[C@@H](N)CCCCN)[C@@H](C)CC)[C@@H](C)O)C(=O)N[C@H](C(=O)N[C@@H](CC(N)=O)C(=O)N[C@@H](CC(=O)O)C(=O)N[C@@H](CC(C)C)C(=O)N[C@@H](CCC(=O)O)C(=O)N1CCC[C@H]1C(=O)N[C@@H](CC(C)C)C(=O)N[C@@H](CC(=O)O)C(=O)N[C@@H](Cc1ccc(O)cc1)C(=O)O)C(C)C	> 2%
CC[C@H](C)[C@H](NC(=O)[C@H](Cc1ccc(O)cc1)NC(=O)[C@H](CCCCN)NC(=O)[C@H](CC(N)=O)NC(=O)[C@@H](N)CCCCN)C(=O)N[C@@H](CO)C(=O)N[C@@H](CC(C)C)C(=O)N[C@@H](Cc1ccc(O)cc1)C(=O)N[C@@H](CC(N)=O)C(=O)N[C@@H](CCCCN)C(=O)N[C@H](C(=O)N[C@@H](CCCCN)C(=O)N[C@H](C(=O)N[C@H](C(=O)N[C@@H](CCSC)C(=O)N1CCC[C@H]1C(=O)N[C@@H](CCC(=O)O)C(=O)N[C@@H](CC(C)C)C(=O)N[C@@H](Cc1ccccc1)C(=O)N[C@@H](CC(=O)O)C(=O)O)[C@@H](C)O)[C@H](C)O)C(C)C	> 2%
CC[C@H](C)[C@H](NC(=O)[C@H](Cc1ccccc1)NC(=O)[C@H](CC(C)C)NC(=O)[C@H](CC(C)C)NC(=O)[C@H](CC(C)C)NC(=O)[C@H](CC(C)C)NC(=O)[C@@H](NC(=O)[C@@H](NC(=O)[C@H](CC(C)C)NC(=O)[C@H](CC(C)C)NC(=O)[C@H](C)NC(=O)[C@H](CC(N)=O)NC(=O)[C@H](CO)NC(=O)[C@H](CCSC)NC(=O)[C@H](C)NC(=O)[C@H](Cc1ccccc1)NC(=O)[C@@H](N)Cc1ccccc1)C(C)C)[C@@H](C)CC)C(=O)N[C@@H](CCC(=O)O)C(=O)N[C@@H](Cc1ccccc1)C(=O)N[C@@H](CC(C)C)C(=O)N[C@@H](Cc1ccc(O)cc1)C(=O)O	> 2%
CC[C@H](C)[C@H](NC(=O)[C@H](CO)NC(=O)[C@H](CCCCN)NC(=O)[C@@H](N)CC(=O)O)C(=O)N[C@H](C(=O)N[C@@H](Cc1cnc[nH]1)C(=O)N[C@@H](Cc1ccccc1)C(=O)N[C@@H](Cc1ccc(O)cc1)C(=O)N[C@@H](CS)C(=O)N[C@@H](CCC(=O)O)C(=O)N[C@@H](CS)C(=O)N[C@@H](CC(N)=O)C(=O)N[C@H](C(=O)N[C@@H](CC(N)=O)C(=O)N[C@@H](CC(N)=O)C(=O)N[C@@H](CC(N)=O)C(=O)N[C@H](C(=O)N[C@H](C(=O)N[C@@H](CCCCN)C(=O)N[C@H](C(=O)O)C(C)C)[C@@H](C)CC)C(C)C)C(C)C)[C@@H](C)CC (H-DKSIIHFYCECNVNNNVIKV-OH)	> 2%
CC[C@H](C)[C@H](NC(=O)[C@H](Cc1ccc(O)cc1)NC(=O)[C@H](CS)NC(=O)[C@@H]1CCCN1C(=O)[C@H](CC(=O)O)NC(=O)[C@@H](N)CCC(=O)O)C(=O)N[C@@H](CC(N)=O)C(=O)N[C@@H](CC(N)=O)C(=O)N[C@@H](CO)C(=O)N[C@@H](Cc1ccc(O)cc1)C(=O)N[C@H](C(=O)N[C@@H](CO)C(=O)N[C@H](C(=O)N[C@@H](CC(N)=O)C(=O)N[C@H](C(=O)N[C@H](C(=O)N[C@@H](CS)C(=O)N[C@@H](CC(N)=O)C(=O)N[C@@H](CCCCN)C(=O)N[C@@H](CCC(=O)O)C(=O)O)C(C)C)C(C)C)C(C)C)C(C)C (H-EDPCYINNSYVSVNVVCNKE-OH)	> 2%
